Columns and labels:
P. gingivalis = experiment: Minimum Inhibitory Concentration, fivefold dilution, no visual growth; type: cell-based; settings: 35±2° C.
Protocol: (§1) Streak plates and characterization by gram-staining were done. MRSA and PA01 were grown on Tryptic Soy agar (TSA) plates and S. sanguinis on horse blood plates for up to 24 hours whereas P. gingivalis was grown between 4 and 5 days on Fastidious Anaerobic agar (FAA) plates. Fivefold dilution in at least five steps of gallium nitrate (Ga(NO3)3) or bismuth chloride (BiCl3) was done. Bismuth salt had to be suspended in DMSO in order to enable salt to dissolve in culture media.
(§2) Equal amounts of bacterial solution and antimicrobial salt (in fivefold dilution) were mixed and incubated at 35±2° C.: MRSA, PA01, and S. sanguinis for 24 hours and P. gingivalis for […]. After incubation, the concentration where no visual growth could be detected was documented.

S. sanguinis = experiment: as above; type: cell-based; settings: 24 hours at 35±2° C.
Protocol: as §1, §2

PA01 = experiment: as above; type: cell-based, Pseudomonas aeruginosa; settings: PA01, 24 hours at 35±2° C.
Protocol: as §1, §2

Francisella novicida = settings: Olakanmi et al (2010); cited from earlier work
Pseudomonas aeruginosa = settings: Kaneko et al. (2007); cited from earlier work
MRSA = type: cell-based, Staphylococcus aureus; settings: 24 hours at 35±2° C.

| Structure (SMILES) | Minimum Inhibitory Concentration (MIC) (P. gingivalis) | Minimum Inhibitory Concentration (MIC) (S. sanguinis) | Minimum Inhibitory Concentration (MIC) (PA01) | growth of Francisella novicida (Francisella novicida) | growth of Pseudomonas aeruginosa in batch cultures (Pseudomonas aeruginosa) | Minimum Inhibitory Concentration (MIC) (MRSA) |
| --- | --- | --- | --- | --- | --- | --- |
| O=[N+]([O-])[O-].O=[N+]([O-])[O-].O=[N+]([O-])[O-].[Ga+3] [Ga(NO3)3, gallium nitrate] | 40 µg/mL | 1000 µg/mL | 200 µg/mL | inhibited the growth | inhibits growth | 1000 µg/mL |
| [Cl][Bi]([Cl])[Cl] [BiCl3, bismuth chloride] | 1000 µg/mL | 40 µg/mL |  |  |  |  |
